Experimental data taken from patent publication US20080050444A1, “Pharmaceutical compositions of ilaparazole” (priority 2005, published 2008).

Experiments:
[1] = Particle size distribution of ilaprazole lots (Sympatec HELOS, low-angle laser light scattering); format: physicochemical; conditions: nitrogen pressure 2 bar
Experimental: The two lots of ilaprazole active ingredient were analyzed using a Sympatec HELOS particle size system with a RODOS dry powder disperser. This instrument operates using low-angle laser light scattering analyzed by Fraunhofer diffraction theory. Aliquots of approximately 0.5 g were fed into the instrument from a vibrating tray into a jet of nitrogen gas. After flowing through an interaction tube, an aerosol was formed in the path of a laser beam. The angle and intensity of diffracted light was then measured to determine the particle size distribution. As part of the method development, the particle size distribution was measured as a function of nitrogen gas pressure, and a pressure of 2 bar was determined to adequately break apart loosely adhered particles without significant milling of the sample. The results are shown below in Table 1 and in FIG. 1. The particle sizes are listed as x10, x50 and x90, the diameter where 10%, 50% and 90% of the volume of the material is in a particle smaller than the listed size.

[2] = acid or neutral conditions; known in the art; cited from earlier work

| SMILES | x10 Mean ([1]; diameter where 10% of the volume of the material is in a particle smaller than the listed size) | x50 Mean ([1]; diameter where 50% of the volume of the material is in a particle smaller than the listed size) | x90 Mean ([1]; diameter where 90% of the volume of the material is in a particle smaller than the listed size) | stability [2] |
| --- | --- | --- | --- | --- |
| COc1ccnc(C[S+]([O-])c2nc3cc(-n4cccc4)ccc3[nH]2)c1C (stereo not shown) [Lot A, ilaprazole] | 1.01 μm | 3.74 μm | 14.79 μm | – |
| COc1ccnc(C[S+]([O-])c2nc3cc(-n4cccc4)ccc3[nH]2)c1C (stereo not shown) [ilaprazole, 2-[[(4-methoxy-3-methyl)-2-pyridyl]methylsufinyl]-5-(1H-pyrrol-1-yl)benzimidazole] | – | – | – | unstable under acid or neutral conditions |
